Results from PubChem BioAssay AID588778 (Southern Research Institute, 2011).
Converted amounts (≈) assume the structure as drawn. The source made the active and inactive calls. No rule for the calls is given here.

Test system: Vibrio cholerae motility, OD read-out
Assay: Vibrio cholerae motility inhibitors, OD read-out (AID 588778)

Row | Structure (SMILES) | IC50
1 | O=C1CC(Sc2ccccc2C(=O)O)C(=O)N1 (configuration not stated) | 8.99 µg/mL (inactive) (≈ 35.8 µM)
2 | O=C(Oc1ccc(Cl)c2cccnc12)c1cccs1 | 12.8 µg/mL (inactive) (≈ 44.2 µM)
3 | O=[N+]([O-])c1nn(Cc2ccc(F)cc2)cc1Br | 4.1 µg/mL (≈ 13.7 µM)
4 | NC(=O)NNc1c2ccccc2nc2ccccc12 | 13 µg/mL (inactive) (≈ 51.5 µM)
5 | FC(F)(F)c1ccccc1-n1c(-c2cccnc2)n[nH]c1=S | 6.15 µg/mL (inactive) (≈ 19.1 µM)
6 | CC[n+]1c(/C=C/c2ccc(-c3ccc([N+](=O)[O-])cc3)o2)ccc2ccccc21 | 15.3 µg/mL (inactive)
7 | O=[N+]([O-])c1nn(Cc2c(F)cccc2Cl)cc1Cl | 1.4 µg/mL (≈ 4.83 µM)
8 | Nc1nc(-c2ccccc2)cc(N2CCCCC2)n1 | 14.3 µg/mL (inactive) (≈ 56.2 µM)
9 | COC(=O)c1sc2cc(NC(=S)NC(C)c3ccc4c(c3)OCO4)ccc2c1Cl (configuration not stated) | 46.8 µg/mL (inactive) (≈ 104 µM)
10 | CC(NC(=O)c1ccc([N+](=O)[O-])o1)C12CC3CC(CC(C3)C1)C2 (configuration not stated) | 3.3 µg/mL (inactive) (≈ 10.4 µM)
11 | O=C(N/C(=C/c1cccs1)c1nc2ccccc2[nH]1)c1cccs1 | 16.8 µg/mL (inactive) (≈ 47.8 µM)
12 | Cc1ccc(C)c(Nc2nc(NCCO)c3ccccc3n2)c1 | 6.87 µg/mL (≈ 22.3 µM)
13 | Cc1ccc(OCCn2ccnc2)c(Cl)c1 | 25.9 µg/mL (inactive) (≈ 109 µM)
14 | COC(=O)NC12CC3CC(CC(C3)C1)C2 | 16.4 µg/mL (inactive) (≈ 78.4 µM)
15 | Nc1nc(NC(=O)c2ccco2)nn1-c1ccccc1 | 11.3 µg/mL (≈ 42 µM)
16 | C=CCNC(=S)Nc1ccc(Cl)c(Cl)c1 | 26.4 µg/mL (inactive) (≈ 101 µM)
17 | CC(=O)NC(=S)NNC(=O)c1ccc(-c2ccccc2)cc1 | 1.96 µg/mL (inactive) (≈ 6.25 µM)
